Assay results from article PMC3254807 (2011).

Biological target: Na+/K+ ATPase
Test: colorimetric ATPase assay
Assay type: biochemical, Sus scrofa

Row | Structure (SMILES) | IC50 [nM]
1 | C[C@H]1O[C@@H](O[C@H]2[C@@H](O)C[C@H](O[C@H]3[C@@H](O)C[C@H](O[C@H]4CC[C@@]5(C)[C@H](CC[C@@H]6[C@@H]5CC[C@]5(C)[C@@H](C7=CC(=O)OC7)CC[C@]65O)C4)O[C@@H]3C)O[C@@H]2C)C[C@H](O)[C@@H]1O [Digitoxin] | 2800
2 | C[C@@H]1O[C@@H](O[C@H]2CC[C@@]3(C)[C@H](CC[C@@H]4[C@@H]3CC[C@]3(C)[C@@H](C5=CC(=O)OC5)CC[C@]43O)C2)[C@H](O)[C@H](O)[C@H]1O [D6-MA] | 1100
